From ChEMBL document CHEMBL1201862, “PubChem BioAssay data set” (2004)
The source made the active and inactive calls.

Key:
Hexokinase HKDC1 = target: T1, Hexokinase HKDC1 (Homo sapiens, UniProt Q2TB90); test: analog inhibition of human HKDC1 activity – biochemical, set 2, SAR follow-up (AID 588355); assay type: functional
T1 sequence (Q2TB90 whole entry): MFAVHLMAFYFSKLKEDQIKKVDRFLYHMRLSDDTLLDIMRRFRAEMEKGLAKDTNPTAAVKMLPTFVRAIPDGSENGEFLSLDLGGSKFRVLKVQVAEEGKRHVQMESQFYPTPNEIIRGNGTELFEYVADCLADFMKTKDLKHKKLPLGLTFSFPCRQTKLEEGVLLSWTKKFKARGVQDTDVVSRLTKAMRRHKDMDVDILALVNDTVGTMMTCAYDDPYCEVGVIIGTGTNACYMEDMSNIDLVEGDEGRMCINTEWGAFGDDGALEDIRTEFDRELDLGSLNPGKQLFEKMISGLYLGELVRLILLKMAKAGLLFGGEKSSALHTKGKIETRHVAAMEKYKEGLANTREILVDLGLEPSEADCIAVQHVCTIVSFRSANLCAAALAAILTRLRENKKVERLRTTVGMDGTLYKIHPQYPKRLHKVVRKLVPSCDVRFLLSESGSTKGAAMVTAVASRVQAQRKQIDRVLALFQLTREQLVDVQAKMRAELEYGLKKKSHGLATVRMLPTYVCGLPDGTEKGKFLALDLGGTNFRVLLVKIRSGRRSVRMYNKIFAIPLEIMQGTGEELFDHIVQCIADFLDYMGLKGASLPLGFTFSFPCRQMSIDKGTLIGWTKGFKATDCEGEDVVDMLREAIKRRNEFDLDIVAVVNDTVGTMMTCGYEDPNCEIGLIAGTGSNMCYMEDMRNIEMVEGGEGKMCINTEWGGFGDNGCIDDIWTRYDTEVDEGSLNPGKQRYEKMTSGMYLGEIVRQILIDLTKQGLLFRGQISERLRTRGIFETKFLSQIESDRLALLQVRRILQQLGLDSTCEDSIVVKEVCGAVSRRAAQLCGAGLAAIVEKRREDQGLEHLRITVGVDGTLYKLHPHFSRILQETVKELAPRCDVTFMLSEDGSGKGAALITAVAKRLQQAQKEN

Hexokinase-1 = target: T2, Hexokinase-1 (Homo sapiens, UniProt P19367); test: hexokinase 1 activity inhibitors, potency – biochemical, set 2, resazurin fluorescence coupled readout, selectivity assay for HKDC1 inhibitor project, SAR follow-up (AID 588356); assay type: functional
T2 sequence (P19367 whole entry): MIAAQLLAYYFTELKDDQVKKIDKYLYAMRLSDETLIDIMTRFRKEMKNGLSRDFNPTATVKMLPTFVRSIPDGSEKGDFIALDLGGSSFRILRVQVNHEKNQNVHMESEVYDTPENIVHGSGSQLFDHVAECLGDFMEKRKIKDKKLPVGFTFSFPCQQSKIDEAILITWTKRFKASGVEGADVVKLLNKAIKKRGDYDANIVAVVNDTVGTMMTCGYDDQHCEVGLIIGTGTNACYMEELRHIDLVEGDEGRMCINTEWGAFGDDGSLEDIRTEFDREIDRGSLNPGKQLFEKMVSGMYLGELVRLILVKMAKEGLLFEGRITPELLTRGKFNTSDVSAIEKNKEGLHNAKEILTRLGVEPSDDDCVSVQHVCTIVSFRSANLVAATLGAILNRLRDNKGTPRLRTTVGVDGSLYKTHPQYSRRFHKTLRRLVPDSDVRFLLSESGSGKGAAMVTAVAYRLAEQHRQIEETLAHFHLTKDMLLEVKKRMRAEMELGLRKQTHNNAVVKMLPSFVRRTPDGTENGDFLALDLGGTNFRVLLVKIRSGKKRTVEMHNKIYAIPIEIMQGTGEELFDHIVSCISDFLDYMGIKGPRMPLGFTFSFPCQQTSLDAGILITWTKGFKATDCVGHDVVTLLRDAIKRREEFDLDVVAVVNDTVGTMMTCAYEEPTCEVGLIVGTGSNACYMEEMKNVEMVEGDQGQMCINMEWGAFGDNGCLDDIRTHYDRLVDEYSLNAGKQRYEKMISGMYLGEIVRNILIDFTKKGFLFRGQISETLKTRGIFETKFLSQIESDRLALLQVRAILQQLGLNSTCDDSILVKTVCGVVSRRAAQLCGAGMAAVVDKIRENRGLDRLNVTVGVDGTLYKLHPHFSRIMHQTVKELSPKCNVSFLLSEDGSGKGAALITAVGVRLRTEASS

CAAX prenyl protease 2 [1] = target: T3, CAAX prenyl protease 2 (Saccharomyces cerevisiae S288c, UniProt Q03530); assay type: biochemical
T3 sequence (Q03530 whole entry): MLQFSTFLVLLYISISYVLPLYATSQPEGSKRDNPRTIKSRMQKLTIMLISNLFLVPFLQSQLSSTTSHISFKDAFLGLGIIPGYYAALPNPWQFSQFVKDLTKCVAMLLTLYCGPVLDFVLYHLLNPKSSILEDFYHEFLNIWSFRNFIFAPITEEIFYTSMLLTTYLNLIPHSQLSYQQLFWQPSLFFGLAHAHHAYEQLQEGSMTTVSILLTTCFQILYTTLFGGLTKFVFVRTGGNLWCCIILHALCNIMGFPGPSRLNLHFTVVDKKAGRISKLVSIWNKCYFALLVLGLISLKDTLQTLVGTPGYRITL

CAAX prenyl protease 2 [2] = target: CAAX prenyl protease 2 (Homo sapiens, UniProt Q9Y256); test: inhibition of Ras-converting CAAX protease Rce1 – biochemical, yeast membranes, quenched-peptide fluorescence, cherry-pick, dose response (AID 588849)
[3] = toxicity toward cultured mammalian cells – cell-based, plate reader, cherry-pick samples, cytotoxicity control, dose response (AID 504397); assay type: functional
[4] = target: DNA dC->dU-editing enzyme APOBEC-3G (Homo sapiens, UniProt Q9HC16); test: Dose Response confirmation of small molecule APOBEC3G DNA Deaminase Inhibitors via a fluorescence-based single-stranded DNA deaminase assay. [Related pubchem assays (depositor defined):AID493012, AID493028]; assay type: functional
[5] = target: DNA dC->dU-editing enzyme APOBEC-3A (Homo sapiens, UniProt P31941); test: A3A deaminase inhibition for selectivity – biochemical, dose response (AID 504722); assay type: functional
[6] = target: T4, Small ubiquitin-related modifier 1 (Homo sapiens, UniProt P63165); test: SUMO1 protein interaction blockers, potency – biochemical, fluorescence polarization, uHTS hits, dose response (AID 624382); assay type: functional; settings: read-out: IC50_Mean
[7] = target: T4, Small ubiquitin-related modifier 1; test: SUMO1 protein-protein binding blockers, potency – biochemical, FRET, dose response (AID 624383); assay type: functional; settings: read-out: IC50_Mean
[8] = target: T5, Apoptotic protease-activating factor 1 (Homo sapiens, UniProt O14727); test: activation of Apaf-1 mediated apoptosis – fluorescent, uHTS hits, dose response (AID 588554); assay type: functional
T5 sequence (O14727 whole entry): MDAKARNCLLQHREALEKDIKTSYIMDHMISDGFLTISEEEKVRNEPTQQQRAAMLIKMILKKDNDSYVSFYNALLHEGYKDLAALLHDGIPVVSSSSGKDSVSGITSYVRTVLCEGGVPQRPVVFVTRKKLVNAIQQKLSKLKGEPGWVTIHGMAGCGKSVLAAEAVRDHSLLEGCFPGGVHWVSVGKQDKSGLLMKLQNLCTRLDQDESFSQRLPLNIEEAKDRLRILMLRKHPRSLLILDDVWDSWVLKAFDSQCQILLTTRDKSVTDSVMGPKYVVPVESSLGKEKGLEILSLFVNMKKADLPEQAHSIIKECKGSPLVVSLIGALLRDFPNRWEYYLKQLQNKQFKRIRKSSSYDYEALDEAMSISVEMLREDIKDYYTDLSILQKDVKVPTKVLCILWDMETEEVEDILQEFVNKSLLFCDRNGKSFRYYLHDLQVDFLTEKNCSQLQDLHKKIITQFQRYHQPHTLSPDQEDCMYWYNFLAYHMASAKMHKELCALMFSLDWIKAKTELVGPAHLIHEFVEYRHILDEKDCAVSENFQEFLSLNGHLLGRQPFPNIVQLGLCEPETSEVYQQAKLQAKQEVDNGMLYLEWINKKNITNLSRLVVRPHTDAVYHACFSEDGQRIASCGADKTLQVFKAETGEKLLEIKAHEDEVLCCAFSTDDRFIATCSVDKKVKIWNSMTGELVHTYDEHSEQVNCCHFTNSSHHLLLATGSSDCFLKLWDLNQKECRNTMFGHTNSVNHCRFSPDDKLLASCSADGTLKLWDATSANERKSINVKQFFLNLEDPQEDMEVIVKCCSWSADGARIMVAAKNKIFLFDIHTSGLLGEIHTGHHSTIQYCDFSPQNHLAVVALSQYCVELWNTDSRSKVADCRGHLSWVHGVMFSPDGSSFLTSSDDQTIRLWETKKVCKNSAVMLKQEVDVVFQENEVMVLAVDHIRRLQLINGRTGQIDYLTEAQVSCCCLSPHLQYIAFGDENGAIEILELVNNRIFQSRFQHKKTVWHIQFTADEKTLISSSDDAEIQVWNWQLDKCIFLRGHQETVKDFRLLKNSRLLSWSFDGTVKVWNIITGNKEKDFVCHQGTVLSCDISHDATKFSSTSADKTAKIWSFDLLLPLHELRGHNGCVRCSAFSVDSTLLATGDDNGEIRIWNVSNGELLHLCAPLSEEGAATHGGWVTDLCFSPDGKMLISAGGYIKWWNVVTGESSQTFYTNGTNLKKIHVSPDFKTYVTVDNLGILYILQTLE

T4 sequence (P63165 whole entry): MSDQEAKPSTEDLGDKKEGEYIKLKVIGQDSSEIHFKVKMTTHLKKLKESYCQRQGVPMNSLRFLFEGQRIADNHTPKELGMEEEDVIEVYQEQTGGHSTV
Sequence of DNA dC->dU-editing enzyme APOBEC-3G (Q9HC16 whole entry): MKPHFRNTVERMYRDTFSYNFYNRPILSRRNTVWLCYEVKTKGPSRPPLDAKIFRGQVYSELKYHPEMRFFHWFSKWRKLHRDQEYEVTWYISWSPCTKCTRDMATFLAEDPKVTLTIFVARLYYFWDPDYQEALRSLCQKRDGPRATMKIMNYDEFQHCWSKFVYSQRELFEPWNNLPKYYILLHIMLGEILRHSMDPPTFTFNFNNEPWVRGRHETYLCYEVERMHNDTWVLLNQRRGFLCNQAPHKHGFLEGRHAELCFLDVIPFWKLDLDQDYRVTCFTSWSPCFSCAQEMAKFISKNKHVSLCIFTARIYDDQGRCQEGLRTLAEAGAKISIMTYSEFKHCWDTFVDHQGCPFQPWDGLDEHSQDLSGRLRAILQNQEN
Sequence of CAAX prenyl protease 2 (Homo sapiens, UniProt Q9Y256) (Q9Y256 whole entry): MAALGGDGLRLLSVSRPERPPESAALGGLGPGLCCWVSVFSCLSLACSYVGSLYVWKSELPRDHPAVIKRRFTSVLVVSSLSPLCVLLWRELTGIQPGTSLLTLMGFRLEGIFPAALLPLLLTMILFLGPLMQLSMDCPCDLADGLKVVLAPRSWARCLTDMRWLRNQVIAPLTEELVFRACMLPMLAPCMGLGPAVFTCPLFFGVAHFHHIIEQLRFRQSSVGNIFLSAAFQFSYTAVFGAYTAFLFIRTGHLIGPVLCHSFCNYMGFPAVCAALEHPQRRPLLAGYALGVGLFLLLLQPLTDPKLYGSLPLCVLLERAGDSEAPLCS
Sequence of DNA dC->dU-editing enzyme APOBEC-3A (P31941 whole entry): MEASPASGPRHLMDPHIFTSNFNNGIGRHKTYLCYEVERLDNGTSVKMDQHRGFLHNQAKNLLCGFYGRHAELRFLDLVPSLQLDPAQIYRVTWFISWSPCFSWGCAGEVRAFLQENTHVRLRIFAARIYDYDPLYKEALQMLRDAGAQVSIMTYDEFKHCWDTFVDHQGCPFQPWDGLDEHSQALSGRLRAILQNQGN

In the case of `COc1cccc(N2C(=O)c3cccnc3C2Nc2ccc(C)c(C)c2)c1` (stereo not given), the IC50 (Hexokinase HKDC1) is reported as > 80 µM (inactive) and the IC50 (Hexokinase-1) is reported as > 80 µM (inactive).
With `Clc1ccc(CN2CCc3c([nH]c4ccccc34)C2)cc1Cl` the AC50 (CAAX prenyl protease 2 [1]) was 2.03 µM (active), the AC50 (CAAX prenyl protease 2 [2]) was 13.9 µM (active) and the AC50 [3] was 18.3 µM (active).
For `C=C(C)C(=O)Nc1cccc(C2=NOC3(C2)C[C@H](C(N)=O)N(C(=O)c2ccccc2C(=O)c2ccccc2)C3)c1` (stereo not given in full), the IC50 [4] was 8.19 µM (active), the IC50 [5] was > 100 µM (inactive) and the IC50 [6] was > 66.6 µM (inactive). The IC50 [7] was 2.73 µM (active) and the EC50 [8] was 3.71 µM (active).
